Assay [1] concerns rabbit cartilage explants. The experiment in a line: Inhibition of glycosaminoglycan (GAG) release, rabbit cartilage explants stimulated with rhIL-1α. Type of assay: cell-based. To be noted: for inhibition at 25 µg/mL: 25 μg/ml; for inhibition at 100 µg/mL: 100 μg/ml. How it is done:
Articular cartilage from hock joints of rabbits (2.5 kg body weight) was removed immediately after each animal was sacrificed. The articular cartilage explants were obtained by following the method described by Sandy et al, 1986. Briefly, after the articular surfaces were exposed surgically under sterile conditions, approximately 200-220 mg articular surfaces per joint were dissected and submerged into complete medium (DMEM, supplemented with heat inactivated 5% FBS; penicillin 100 U/ml; streptomycin 100 μg/ml). They were then rinsed several times with the complete medium and incubated for 2 days at 37° C. in a humidified 5% CO2/95% air incubator for stabilization. The complete medium was replaced with a basal medium (DMEM, supplemented with heat-inactivated 1% FBS, 10 mM HEPES, and penicillin 100 U/ml streptomycin 100 μg/ml). Approximately 30 mg cartilage pieces (2×3×0.35 mm/piece) were placed in 48-well plates and treated with given concentrations of test agents. After pretreatment for 1 h, 5 ng/ml of rhIL-1α was added to the culture medium and further incubated at 37° C. in a humidified 5% CO2/95% air incubator. The culture medium was collected 24 h later and stored at −80° C. until assay.
The amount of sulphated GAGs in the medium at the end of the reaction, reflecting the amount of articular cartilage degradation, was determined through 1,9-dimethy-methylene blue method using commercially available kit (the Blyscan proteoglycan and glycosaminoglycan assay) according to the instructions of the manufacturer. Diclofenac was utilized as a positive control at 300 μg/ml.
Dose curves of Alpinia, Pepper, Magnolia, and Kochia plant extracts were tested on the ex vivo glycosaminoglycan (GAG) release assay as illustrated in previous example to assess their cartilage protection effects. Cartilage explants were pre-treated with each extract before being exposed to IL-1α, which caused degradation and the release of GAGs from the cartilage matrix.

Assay [2] concerns Sprague Dawley rats. Description: Hot plate test, topical application, paw withdrawal latency. It counts as in vivo, rat. To be noted: for Paw withdrawal threshold (latency) Mean ± SD: in s (unit assumed); for increase in paw withdrawal latency as compared to vehicle: 5% concentration; for % Change: negative = increased paw withdrawal latency. The text has this: Repeated application of anti-inflammatory compounds or extracts topically at the site of thermal contact (noxious stimulus) may cause desensitization of the peripheral afferent pain receptors to produce a delay in response time. A longer change in reaction time could be interpreted as an anti-nociceptive effect of the applied compound. To evaluate whether prepared plant extracts and compositions could provide anti-nociceptive activity, rats received orally-active anti-inflammatory extracts formulated in 2% Aloe vera gel at 5% concentration topically on their hind paws. The applied preparations on each paw were massaged at least 60 times in a circular motion into the skin until the applied content appeared visually absorbed. The procedure was repeated 3 times, every 30 minutes, before placing the animals on a preheated hot plate set to 53° C. The paw withdrawal latency was calculated as the time elapsed from the initial placement of the rat onto the hotplate to the withdrawal (or licking or shaking) of the hind paw in response to the thermal stimulus. Animals were immediately removed when this response was observed.
The anti-pain activity of medicinal plant extracts was tested on a hot plate set at 53° C. Test materials at 5% concentrations were topically applied at 20 μl/paw to the hind paws of both right and left paws of Sprague Dawley rats (n=10 per group). Applications of these extracts were carried out every 30 minutes for a total of 90 minutes. Within these 90 minutes, rats received a total of 60 μl/paw of the test article per rat. At 5% concentration, each rat received 3 mg/paw of the test articles. Due to the solubility characteristics of the compounds, two types of vehicles, V1=Dimethyl sulfoxide (DMSO)+propylene glycol (PG)+Aloe (2%), and V2=DMSO+OIL+PG, were used. Percent changes and P-values for statistical significance were determined using respective vehicles for each test material. The vehicle used for each material has been indicated in the parenthesis next to the test material. […] These increases in anti-pain activity were statistically significant. […] This percent change was statistically significant when compared to its respective vehicle.
(Hot-plate and tail-flick tests time the reaction to a heat stimulus.)

In assay [3] the test system is Carrageenan-induced paw edema in rats. Description: Carrageenan-induced paw edema in rats, paw edema (anti-inflammation). Type of assay: in vivo, rat. Here is the method: (§1) Carrageenan-induced paw edema in rats was used to evaluate the anti-inflammatory and anti-pain activities of individual Alpinia, Pepper, Magnolia and Kochia extracts. Sprague Dawley (SD) rats (N=5 per group) were given Alpinia, Pepper, Magnolia and Kochia extracts at 300 mg/kg orally one hour […] intra-plantar injection of 100 μl carrageenan. Pain sensitivity and paw edema were monitored at T0 (before carrageenan) and 2, 4 and 6 hours after carrageenan. Ibuprofen as a positive control was used at 150 mg/kg.
(§2) Rats were gavaged with each constituent as they appeared in the 300 mg/kg of the AMK individually in order to determine whether the plant extracts acted synergistically. For the 2:4:3 ratio of AMK, rats were administered with 67 mg/kg of Alpinia extract, 133 mg/kg of Magnolia extract and 100 mg/kg of Kochia extract. The percent inhibition of pain and inflammation of the combined compositions at 300 mg/kg were compared with those dosages of individual extracts to find out potential additive, antagonistic or synergistic effects in combination using the Colby's equation.
(§3) The merit of combining Alpinia with Pepper for AP (1:2 ratio) was evaluated in the carrageenan rat paw edema model. Rats were gavaged with each constituent as they appeared in 300 mg/kg of the AP. For the 1:2 ratio of AP, 100 mg/kg of Alpinia and 200 mg/kg of Pepper extract were administered to the rats. The percent inhibition of pain and inflammation of the compositions at 300 mg/kg was compared with those dosages of individual extracts to find out potential additive, antagonistic or synergistic effects in combination using Colby's equation (Colby 1967). For the blending of these plant extracts to have unexpected synergy, the observed inhibition needed to be greater than the calculated value.

For assay [4] the test system is unchanged. The experiment in a line: Carrageenan-induced paw edema in rats, pain sensitivity (anti-pain). Type of assay: in vivo, rat. How it is done: as §1, §2, §3
(In general: Carrageenan injected into the paw causes an acute inflammation.)

The mark [5] stands for this setting: hot plate 53° C., topical, vehicle V1 (DMSO+PG+Aloe 2%), dose (%): Ibuprofen 5, Capsaicin 0.5, Diclofenac 1, others 5.
[6] abbreviates: vs vehicle V1, dose (%): Ibuprofen 5, Capsaicin 0.5, Diclofenac 1, others 5.
Where [7] appears, read: 100 mg/kg oral, 1 hr after treatment.
Where [8] appears, read: 100 mg/kg oral, 3 hr after treatment.
Where [9] appears, read: 100 mg/kg oral, 5 hr after treatment.
Setting [10] is: 150 mg/kg oral, 1 hr after treatment.
Where [11] appears, read: 150 mg/kg oral, 3 hr after treatment.
Where [12] appears, read: 150 mg/kg oral, 5 hr after treatment.

“And” between values parts separate entries of the source, which are not always exact repeats. Equal entries are not always repeated.

By inhibition is commonly meant the drop in the measured response relative to a control, in per cent.

Consider `CC(=O)OC/C=C/c1ccc(OC(C)=O)cc1` [p-coumaryl diacetate], for which, in assay [1] (Oryctolagus cuniculus), the inhibition at 25 µg/mL worked out at 111% and the inhibition at 100 µg/mL is 138%.

On to `C=CCc1ccc(O)c(-c2ccc(O)c(CC=C)c2)c1` [Honokiol], for which the inhibition at 10 µg/mL in assay [1] (Oryctolagus cuniculus, 10 μg/ml) worked out at 104%. For the same molecule, in assay [1] (Oryctolagus cuniculus, 50 μg/ml), the inhibition at 50 µg/mL was 119%.

As for Piperine, the “Inhibition of GAG release” value in assay [1] (50 μg/ml) amounted to 98%. Moreover, the “Paw withdrawal threshold (latency) Mean ± SD” value in assay [2] (hot plate 53° C., topical, vehicle V2 (DMSO+OIL+PG), run 1, dose 5%) turned out to be 7.97 ± 1.86. Besides, the “increase in paw withdrawal latency as compared to vehicle” value in assay [2] (topical, hot plate 53° C.) turned out to be 32.6%. For the same molecule, in assay [2] (vs vehicle V2 run 1, dose 5%), the “% Change” value is on record as −32.6%.

Consider `CC1(C)CCC2(C(=O)O)CCC3(C)C(=CCC4C5(C)CCC(OC6OC(C(=O)O)C(O)C(OC7OCC(O)C(O)C7O)C6O)C(C)(C)C5CCC43C)C2C1` (stereo not drawn) [Momordin lc], for which, in assay [1] (Oryctolagus cuniculus), the inhibition at 25 µg/mL was 84% and the inhibition at 100 µg/mL is 83%.

Regarding `C=C[C@H](OC(C)=O)c1ccc(OC(C)=O)cc1` [1′-acetoxychavicol acetate], in assay [1] (Oryctolagus cuniculus), the inhibition at 25 µg/mL came out at 99% and the inhibition at 100 µg/mL stood at 109%.

In the case of `C=CCc1ccc(O)c(-c2cc(CC=C)ccc2O)c1` [Magnolol], the “Inhibition of GAG release” value in assay [1] (10 μg/ml) and in assay [1] (50 μg/ml) was 97% each time.

Regarding `CC1CCC(C(C)C)C(O)C1` (stereo not drawn) [Menthol], in assay [2] (setting [5]), the “Paw withdrawal threshold (latency) Mean ± SD” value is recorded as 6.05 ± 1.70. The “% Change” value in assay [2] (setting [6]) was 15.1%.

For `CC(C)Cc1ccc(C(C)C(=O)O)cc1` (stereo not drawn) [Ibuprofen], the “Anti-inflammation Percent change vs vehicle” value in assay [3] (setting [7]) is 50.07% and 45.00% and 51.0%; in assay [3] (setting [8]), 47.40% and 50.31% and 48.0%; in assay [3] (setting [9]), 37.28% and 41.84% and 39.0%; in assay [3] (setting [10]), 43.03% and 49.50% and 47.3%; in assay [3] (setting [11]), 48.38% and 48.62% and 49.7%; in assay [3] (setting [12]), 36.79% and 37.66% and 37.6%. Also, the “Paw edema, Average” value was 1.43 in assay [3] (150 mg/kg oral, 1 hr); 1.59 in assay [3] (150 mg/kg oral, 3 hr); 1.77 in assay [3] (150 mg/kg oral, 5 hr). Further, the “Anti-pain Percent change vs vehicle” value was 50.51% and 48.44% and 50.5% in assay [4] (setting [7]); 46.37% and 47.46% and 46.1% in assay [4] (setting [8]); 37.42% and 37.77% and 38.5% in assay [4] (setting [9]); 46.49% and 50.51% and 44.4% in assay [4] (setting [10]); 45.85% and 46.37% and 47.9% in assay [4] (setting [11]); 33.55% and 37.42% and 30.8% in assay [4] (setting [12]). For the same molecule, the “Pain sensitivity, Average” value in assay [4] (150 mg/kg oral, 1 hr) is reported as 25.02; in assay [4] (150 mg/kg oral, 3 hr) it was 35.67; in assay [4] (150 mg/kg oral, 5 hr), 45.49. Besides, the “Paw withdrawal threshold (latency) Mean ± SD” value was 8.73 ± 1.37 in assay [2] (setting [5]) and 6.05 ± 1.98 in assay [2] (hot plate 53° C., topical, vehicle V2 (DMSO+OIL+PG), run 2, dose 5%). For the same molecule, the “increase in paw withdrawal latency as compared to vehicle” value in assay [2] (topical, hot plate 53° C.) is 22.4%. Besides, the “% Change” value in assay [2] (setting [6]) is on record as −22.4%; in assay [2] (vs vehicle V2 run 2, dose 5%), −23.98%.

With `COc1cc(CNC(=O)CCCC/C=C/C(C)C)ccc1O` [Capsaicin], the “Paw withdrawal threshold (latency) Mean ± SD” value in assay [2] (setting [5]) came out at 4.51 ± 1.12. For the same molecule, in assay [2] (topical, hot plate 53° C.), the “decrease in paw withdrawal latency compared to vehicle” value was 36.7%. Also, the “% Change” value in assay [2] (setting [6]) is 36.7%.

Source of the values: patent US20220000964A1, “Compositions and Methods for Regulating Homeostasis of Chondrocytes, Extracellular Matrix, Articular Cartilage, and Phenotype of Arthritis” (Unigen, Inc., priority 2020, published 2022).
